This is an account of results in paper PMC4628094, “In Vitro Assessment of Uptake and Lysosomal Sequestration of Respiratory Drugs in Alveolar Macrophage Cell Line NR8383” (Pharmaceutical Research, 2015).

For assay [1], the system named is Liver tissue slices from male Wistar rats. Details: method as in ref (14) (a number printed in a supplementary file, which may have a reference list of its own: not looked up in the article's list). The conditions noted are these: monensin 10 µM, drug 5 µM, 60 min, ref (14); cited from earlier work.
The test system is the same in assay [2]. On the set-up: method as in ref (5) (a number printed in a supplementary file, which may have a reference list of its own: not looked up in the article's list). The following applies: NH4Cl 20 mM, drug 5 µM, 60 min, ref (5); cited from earlier work.
The subject of assay [3] is Lung tissue slices from male Wistar rats. Details: method as in ref (14) (a number printed in a supplementary file, which may have a reference list of its own: not looked up in the article's list). The conditions noted are these: monensin 10 µM, drug 5 µM, 60 min, ref (14); cited from earlier work.
The test system is the same in assay [4]. Details: method as in ref (5) (a number printed in a supplementary file, which may have a reference list of its own: not looked up in the article's list). The conditions noted are these: NH4Cl 20 mM, drug 5 µM, 60 min, ref (5); cited from earlier work.
The next assay has as its system NR8383 cells. The assay is described as follows: LysoTracker Red (LTR) confocal assessment of lysosomal sequestration in NR8383. Type of assay: cell-based, rat. The following applies: NH4Cl 20 mM, monensin 5 μM, nigericin 10 μM with 200 nM LTR.
Assay [5] concerns Brain slices from male Wistar rats. Details: method as in ref (10) (a number printed in a supplementary file, which may have a reference list of its own: not looked up in the article's list). The following applies: drug 5 µM, 60 min, ref (10), cited from earlier work; for Reduction in total uptake (%): NH4Cl 20 mM; for Reduction of total uptake (%): monensin 10 µM.
The test system of assay [6] is Lung tissue slices from male Sprague-Dawley rats. The conditions noted are these: desipramine, diazepam 5 µM, chloroquine, thiopental 10 µM, 60 min, ref (3), cited from earlier work.
Assay [7] relates to Liver tissue slices from male Sprague-Dawley rats. Details: method as in ref (3) (a number printed in a supplementary file, which may have a reference list of its own: not looked up in the article's list). The following applies: NH4Cl 20 mM, desipramine 5 µM, chloroquine 10 µM, 60 min, ref (3); cited from earlier work.
Assay [8] relates to Liver tissue slices from male Wistar rats. On the set-up: method as in ref (9) (a number printed in a supplementary file, which may have a reference list of its own: not looked up in the article's list). The conditions noted are these: NH4Cl 20 mM, drug 5 µM, 60 min, ref (9); cited from earlier work.
For assay [9] the test system is unchanged. On the set-up: method as in ref (8) (a number printed in a supplementary file, which may have a reference list of its own: not looked up in the article's list). The conditions noted are these: NH4Cl 20 mM, drug 5 µM, 60 min, ref (8); cited from earlier work.
For assay [10], the system named is Lung tissue slices from male Wistar rats. Details: method as in ref (9) (a number printed in a supplementary file, which may have a reference list of its own: not looked up in the article's list). The conditions noted are these: NH4Cl 20 mM, drug 5 µM, 60 min, ref (9); cited from earlier work.
The test system is the same in assay [11]. Details: method as in ref (8) (a number printed in a supplementary file, which may have a reference list of its own: not looked up in the article's list). The following applies: NH4Cl 20 mM, drug 5 µM, 60 min, ref (8); cited from earlier work.

Where a name gives a salt, the structure may show the parent alone. Read-outs that look alike come from different tables or passages of the source.

`NC(=O)N1c2ccccc2C=Cc2ccccc21` [Carbamazepine]: the “Reduction of total uptake (%)” value in assay [1] is reported as 0%; in [3], 5.4%. The “Reduction in total uptake (%)” value in [2] is 16.1%; in [4], 5.4%.

Consider `CC[C@@]1([C@@H]2O[C@@H]([C@H]3O[C@@](O)(CO)[C@H](C)C[C@@H]3C)C[C@@H]2C)CC[C@H]([C@]2(C)CC[C@]3(C[C@H](O)[C@@H](C)[C@@H]([C@@H](C)[C@@H](OC)[C@H](C)C(=O)O)O3)O2)O1` [monensin, monensin sodium salt], for which the “reduced LTR fluorescent signal” value with NR8383 cells is on record as “up to 85%”.

`CO[C@@H]1C[C@@H](C[C@H]2CC[C@H](C)[C@H]([C@@H](C)C(=O)O)O2)O[C@]2(O[C@](C)([C@H]3CC[C@@](C)([C@@H]4O[C@@H]([C@H]5O[C@@](O)(CO)[C@H](C)C[C@@H]5C)C[C@@H]4C)O3)C[C@H]2C)[C@@H]1C` [nigericin, nigericin sodium salt]: the “reduced LTR fluorescent signal” value with NR8383 cells is on record as “up to 85%”.

Consider `CN(C)CCCN1c2ccccc2Sc2ccccc21` [Promazine], for which the “Reduction of total uptake (%)” value in [1] is 86%; in assay [5], 35%; in assay [3], 71%. The “Reduction in total uptake (%)” value is 20% in assay [5], 59% in assay [2] and 46.8% in assay [4].

Consider `CNCCCN1c2ccccc2CCc2ccccc21` [Desipramine], for which the figures for the “Reduction in total uptake (%)” value in [6] (NH4Cl 20 mM) and in assay [7] were 23% and 15%, respectively. In assay [6] (monensin 10 µM), the “Reduction of total uptake (%)” value is recorded as 12%.

`CN(C)CCC=C1c2ccccc2CCc2ccccc21` [Amitriptyline]: the “Reduction of total uptake (%)” value in [1] was 48%; in assay [5] it was 31%; in assay [3], 70%. Further, the “Reduction in total uptake (%)” value was 67% in [8]; 68% in assay [9]; 32% in assay [5]; 40% in [2]; 47% in assay [10]; 63% in assay [4]. The “Reduction in total uptake (%)” value in [11] is 56%.
